Reference: the NIST ThermoML archive (doi:10.1016/j.jct.2017.07.004)

Test: xn = mol fraction of the nth substance listed
Conditions: 100 kPa, Liquid; for viscosity: Concentric cylinders viscometry; for mass density: Vibrating tube method

CCC=O [propanal] + CC(C)O
Conditions | mass density, 293.15 K [kg/m3] | mass density, 298.15 K [kg/m3] | mass density, 303.15 K [kg/m3] | viscosity, 293.15 K [mPa·s] | viscosity, 298.15 K [mPa·s] | viscosity, 303.15 K [mPa·s] | viscosity, 308.15 K [mPa·s]
x1 = 0.0812 | 792 | 786.6 | 781.5 | 2.37 | 2.04 | 1.76 | 1.52
x1 = 0.16 | 797.2 | 791.5 | 786.2 | 2.3 | 1.97 | 1.69 | 1.46
x1 = 0.24 | 801.6 | 795.9 | 790 | 2.2 | 1.88 | 1.61 | 1.38
x1 = 0.3499 | 806.4 | 800.4 | 794.5 | 2 | 1.72 | 1.47 | 1.26
x1 = 0.4402 | 809.2 | 803 | 797.1 | 1.81 | 1.56 | 1.33 | 1.14
x1 = 0.5619 | 811.4 | 804.9 | 798.8 | 1.52 | 1.32 | 1.13 | 0.97
x1 = 0.6483 | 811.8 | 805 | 798.8 | 1.3 | 1.13 | 0.97 | 0.83
x1 = 0.74 | 811.3 | 804.1 | 797.8 | 1.06 | 0.93 | 0.8 | 0.69
x1 = 0.85 | 809.1 | 802.3 | 795.8 | 0.76 | 0.67 | 0.59 | 0.52
x1 = 0.94 | 806 | 799.1 | 792.6 | 0.51 | 0.46 | 0.42 | 0.39
x1 = 1 | 802.4 | 796.2 | 790.3 | 0.34 | 0.33 | 0.31 | 0.3
